In patent publication US12378251B2, “Triazolopyrimidine compound and salt, composition and use thereof” (SHANGHAI INSTITUTE OF MATERIA MEDICA, CHINESE ACADEMY OF …, priority 2019, dated 2025) one finds inhibition and IC50 data, which are given here for 18 compounds.

Assay [1] deals with NAE enzyme (human recombinant APPBP1/UBA3) (Homo sapiens (Human), UniProt Q8TBC4). Nature of the assay: Inhibition of NAE enzyme activity at the molecular level (HTRF). In kind it is biochemical. The method, then: Homogeneous Time-Resolved Fluorescence (HTRF) technology was used to detect the in vitro inhibitory effect of the compound on NAE enzyme activity. […] (7) the inhibition rate of the compound was calculated by the following formula: • a. […] IC50 was calculated with a GraphPad software.
In general terms: Time-resolved FRET reads energy transfer from a long-lived donor to a nearby acceptor.

The subject of assay [2] is human colon cancer cells HCT-116. The assay can be described thus: Inhibition of proliferation of HCT-116 cells (SRB method). In kind it is cell-based. The method, then: The inhibitory effects of the compounds on the proliferation of human colon cancer cells HCT-116 were detected by a sulforodamine B (SRB) method. The specific steps were as follows: HCT-116 cells in the logarithmic phase were seeded into a 96-well culture plate at a suitable density with 90 μL per well. After overnight cultivation, the compounds at different concentrations were added to act for 72 h, and a solvent control group (negative control) was set. After 72 h of the compounds acting on the cells, the effects of the compounds on cell proliferation were detected using the SRB method as follows. The culture solution was discarded, and 100 μL/well of 10% trichloroacetic acid (TCA) pre-cooled at 4° C. was added, fixed at 4° C. for 1 h, then washed with distilled water for 5 times, and naturally dried in the air; 100 μL/well of SRB (4 mg/ml) solution prepared by 1% glacial acetic acid was added, stained at room temperature for 15 minutes; the supernatant was removed, washed with 1% acetic acid for 5 times, and air dried; 150 μl/well of Tris (10 mM) solution was added, then left at room temperature for 15 minutes; finally, a full-wavelength microplate enzyme-labeled instrument SpectraMax 190 was used to read with a measurement wavelength of 560 nm. The inhibition rate (%) of the compound on tumor cell growth was calculated by the following formula: [formula]
In general terms: Sulforhodamine B stains cellular protein and so reports cell mass.

Setting [3] is: HCT-116, 72 h, read-out: HCT-116 IC50* (μM).
The mark [4] stands for this setting: HCT-116 cells, 72 h, SRB, read-out: HCT-116 IC50*.

Like-named read-outs stand apart in the source and are kept apart here. Where only a bound is given, the exact number is not on record here.

Sequence of NAE enzyme (human recombinant APPBP1/UBA3) (Q8TBC4 whole entry): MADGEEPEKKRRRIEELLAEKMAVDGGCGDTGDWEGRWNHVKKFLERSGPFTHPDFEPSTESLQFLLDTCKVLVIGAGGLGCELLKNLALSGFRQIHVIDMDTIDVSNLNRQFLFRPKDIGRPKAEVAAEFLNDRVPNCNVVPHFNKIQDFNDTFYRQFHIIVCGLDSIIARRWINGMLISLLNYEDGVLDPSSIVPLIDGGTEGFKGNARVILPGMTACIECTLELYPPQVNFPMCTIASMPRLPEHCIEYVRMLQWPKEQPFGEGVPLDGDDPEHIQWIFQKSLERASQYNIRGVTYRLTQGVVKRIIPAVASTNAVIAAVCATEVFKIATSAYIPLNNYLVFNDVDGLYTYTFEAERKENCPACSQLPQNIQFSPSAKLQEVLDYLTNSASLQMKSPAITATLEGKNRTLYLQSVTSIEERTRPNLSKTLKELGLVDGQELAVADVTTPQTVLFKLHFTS
Sequence of NAE enzyme (human recombinant APPBP1/UBA3) (Q13564 whole entry partner): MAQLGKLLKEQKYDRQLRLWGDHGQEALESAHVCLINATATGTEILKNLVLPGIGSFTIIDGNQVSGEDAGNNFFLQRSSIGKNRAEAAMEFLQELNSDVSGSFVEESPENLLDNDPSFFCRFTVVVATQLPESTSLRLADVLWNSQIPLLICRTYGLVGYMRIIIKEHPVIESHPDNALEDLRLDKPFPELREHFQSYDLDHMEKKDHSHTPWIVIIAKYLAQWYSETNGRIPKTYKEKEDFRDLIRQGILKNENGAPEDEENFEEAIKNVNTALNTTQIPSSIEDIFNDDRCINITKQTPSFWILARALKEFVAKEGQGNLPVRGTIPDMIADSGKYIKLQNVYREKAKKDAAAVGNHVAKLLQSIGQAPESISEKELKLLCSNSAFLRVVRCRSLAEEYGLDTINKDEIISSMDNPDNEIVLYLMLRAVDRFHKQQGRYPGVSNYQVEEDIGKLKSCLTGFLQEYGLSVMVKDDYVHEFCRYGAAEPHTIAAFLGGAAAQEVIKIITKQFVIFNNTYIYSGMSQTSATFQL

For `NS(=O)(=O)OCC1CC(n2nnc3c(N[C@H]4CCc5ccccc54)ncnc32)CC1O` (stereo partly drawn) [Compound S1], the inhibition at 10 µM in assay [1] (2 h, read-out: IR (10 μM)) came to 99%. The IC50 in assay [2] (setting [3]) was less than 0.01 µM.

Take `NS(=O)(=O)OCC1CC(n2nnc3c(NCc4ccccc4F)ncnc32)CC1O` (stereo not drawn) [Compound S2]: the inhibition at 10 µM in assay [1] (2 h; read-out: IR (10 μM)) was found to be 99.5%. Also, the IC50 in assay [2] (setting [4]) is less than 0.01 µM.

Consider `NS(=O)(=O)OCC1CC(n2nnc3c(NCc4cccs4)ncnc32)CC1O` (stereo not drawn) [Compound S3], for which, in assay [1] (2 h; read-out: IR (10 μM)), the inhibition at 10 µM came to 98.8%. Also, the IC50 in assay [2] (setting [4]) is 0.01 to 100 µM.

As for `NS(=O)(=O)OCC1CC(n2nnc3c(NCc4ccco4)ncnc32)CC1O` (stereo not drawn) [Compound S4], in assay [1] (2 h; read-out: IR (10 μM)), the inhibition at 10 µM amounted to 98.6%. For the same compound, the IC50 in assay [2] (setting [4]) was 0.01 to 100 µM.

With `NS(=O)(=O)OCC1CC(n2nnc3c(NCCc4cccs4)ncnc32)CC1O` (stereo not drawn) [Compound S5], the inhibition at 10 µM in assay [1] (2 h, read-out: IR (10 μM)) came to 95.2%. Besides, the IC50 in assay [1] (NAE enzyme activity, HTRF) was 0.1 to 1 µM; in assay [2] (setting [3]) it was greater than 100 µM.

Consider `NS(=O)(=O)OCC1CC(n2nnc3c(NCCc4ccccc4)ncnc32)CC1O` (stereo not drawn) [Compound S6], for which the inhibition at 10 µM in assay [1] (2 h, read-out: IR (10 μM)) is 95.8%. In addition, the IC50 in assay [2] (setting [3]) is greater than 100 µM.

For `NS(=O)(=O)OCC1CC(n2nnc3c(NCCCc4ccccc4)ncnc32)CC1O` (stereo not drawn) [Compound S7], the inhibition at 10 µM in assay [1] (2 h; read-out: IR (10 μM)) was determined as 96.1%. Moreover, the IC50 in assay [1] (NAE enzyme activity, HTRF) was 0.1 to 1 µM; in assay [2] (setting [4]), greater than 100 µM.

Regarding `CCCCCCNc1ncnc2c1nnn2C1CC(O)C(COS(N)(=O)=O)C1` (stereo not drawn) [Compound S8], in assay [1] (2 h; read-out: IR (10 μM)), the inhibition at 10 µM was found to be 98.3%. The IC50 in assay [2] (setting [4]) was greater than 100 µM.

For `NS(=O)(=O)OCC1CC(n2nnc3c(N[C@@H]4c5ccccc5C[C@@H]4O)ncnc32)CC1O` (stereo partly drawn) [Compound S9], in assay [1] (2 h; read-out: IR (10 μM)), the inhibition at 10 µM is 98.3%. Also, the IC50 in assay [2] (setting [4]) is less than 0.01 µM.

For `NS(=O)(=O)OCC1CC(n2nnc3c(N[C@H]4CC5(CCNCC5)c5ccccc54)ncnc32)CC1O` (stereo partly drawn) [Compound S14], in assay [1] (2 h; read-out: IR (10 μM)), the inhibition at 10 µM worked out at 91.4%. In assay [2] (setting [4]), the IC50 was greater than 100 µM.

As to `CN1CCC2(CC1)C[C@H](Nc1ncnc3c1nnn3C1CC(O)C(COS(N)(=O)=O)C1)c1ccccc12` (stereo partly drawn) [Compound S15], the inhibition at 10 µM in assay [1] (2 h; read-out: IR (10 μM)) stood at 77%. Also, the IC50 in assay [1] (NAE enzyme activity, HTRF) is 0.1 to 1 µM; in assay [2] (setting [4]), 0.01 to 100 µM.

As to `NS(=O)(=O)OC[C@@H]1C[C@@H](n2nnc3c(N[C@@H]4C[C@H]4c4ccc(F)c(F)c4)ncnc32)CC1O` (stereo partly drawn) [Compound S16], the inhibition at 10 µM in assay [1] (2 h; read-out: IR (10 μM)) is 85.2%. Moreover, the IC50 in assay [2] (setting [4]) is greater than 100 µM.

For `NS(=O)(=O)OCC1CC(n2nnc3c(Nc4n[nH]c5ccccc45)ncnc32)CC1O` (stereo not drawn) [Compound S17], the inhibition at 10 µM in assay [1] (2 h; read-out: IR (10 μM)) was determined as 7.9%. Besides, the concentration for half-maximal inhibition (IC50) in assay [2] (setting [4]) was greater than 100 µM.

In the case of `NS(=O)(=O)OCC1CC(n2nnc3c(Nn4ccc5ccccc54)ncnc32)CC1O` (stereo not drawn) [Compound S18], the inhibition at 10 µM in assay [1] (2 h; read-out: IR (10 μM)) was found to be 43.3%. Besides, in assay [2] (setting [4]), the IC50 was greater than 100 µM.

Consider `NS(=O)(=O)OCC1CC(n2nnc3c(Nc4cnc5ccccn45)ncnc32)CC1O` (stereo not drawn) [Compound S19], for which the inhibition at 10 µM in assay [1] (2 h; read-out: IR (10 μM)) was found to be 57.8%. The IC50 in assay [2] (setting [4]) was greater than 100 µM.

With `COC(=O)[C@H]1C=C[C@@H](Nc2ncnc3c2nnn3C2CC(O)C(COS(N)(=O)=O)C2)C1` (stereo partly drawn) [Compound S20], the inhibition at 10 µM in assay [1] (2 h, read-out: IR (10 μM)) stood at 84.8%. The IC50 in assay [2] (setting [3]) was greater than 100 µM.

Take `NS(=O)(=O)OCC1CC(n2nnc3c(NC4CCCC4)ncnc32)CC1O` (stereo not drawn) [Compound S21]: in assay [1] (2 h; read-out: IR (10 μM)), the inhibition at 10 µM turned out to be 48.2%. In addition, the IC50 in assay [2] (setting [4]) is greater than 100 µM.

For the compound `NS(=O)(=O)OC[C@@H]1C[C@@H](n2ccc3c(N[C@H]4CCc5ccccc54)ncnc32)C[C@@H]1O` [MLN4924, reference compound], the inhibition at 10 µM in assay [1] (2 h, read-out: IR (10 μM)) was 98.6%. In addition, the IC50 in assay [2] (setting [4]) was less than 0.01 µM.

The IC50 is the concentration that gives 50% inhibition.
